Several values for one entry are separate records, joined by “and”; a condition that tells them apart may be missing. Equal entries are not always repeated. Where two headings read alike, the source gives them in different places.
Tests used:
[1] = Concentration of saturated antagonist solutions in phosphate buffer pH 5.0; type: physicochemical; details: phosphate buffer pH 5.0, stirred overnight, filtered
Procedure: The determination of in vitro skin permeation was performed with saturated solutions of the respective antagonist species. Therefore an excess of the antagonist was weighed in phosphate buffer of pH 5.0 and stirred overnight. pH was monitored and, if necessary, adjusted. The cells were incubated at 32° C. Solutions were filtrated through a syringe filter (1 μm PTFE) prior to application into the diffusion cells. Concentrations of the solutions were determined.
The determination of naloxone and naloxone N-oxide in the acceptor medium of the in vitro skin permeations samples (receptor phase) was done by HPLC with UV-detection.

[2] = pKa analysis by pH-metric triple titration; type: physicochemical; details: […] C., […] KCl
Procedure: (§1) pKa analysis was performed using a pH-metric method. […] No precipitation or degradation was observed and two pKas were determined from the potentiometric data. Log P was determined using the potentiometric (pH-metric method). The sample was titrated in various ratios of octanol/water in two titrations covering the pH range 2.0-12.0 at concentrations of 1.9-1.1 mM. The shift of the aqueous pKas in the presence of octanol was used to determine the log P of the neutral species.

[3] = Intrinsic in vitro skin permeation of saturated antagonist solutions (Franz cell); type: in vitro ADME; details: saturated donor solution pH 5.0, human skin
Procedure: Diffusion cells (made of glass) with a vertical application and a volume of 5 ml were used. The human skin used for the analysis came from an aesthetic operation. Belly skin from female donors was supplied from plastic surgery. After arrival, skin was visually checked whether it was without any scars and stretch marks. A layer of 200-400 μm was cut with a dermatome. The permeation area of 0.82 cm^2 was punched out of the skin.
The diffusion cell consists of a donor chamber and a receptor compartment, the skin is fixed between both. The sampling and volume replacement were executed via an autosampler.

[4] = Log P by potentiometric (pH-metric) octanol/water titration; type: physicochemical; details: Neutral species, […] C., […] KCl
Procedure: as §1

[5] = +37° C.; for Mean concentration of Naloxone N-oxide in human plasma samples / Mean concentration of Naloxone N-oxide in human whole blood samples: mean of n=3; for Concentrations of Naloxone N-oxide in human plasma samples / Concentrations of Naloxone N-oxide in human whole blood samples: single replicates
Description: Analytical procedures followed were based on those outlined in the “Guideline on Bioanalytical Method Validation”, EMA, CHMP, EWP, July 2011 and “Reflection paper for laboratories that perform the analysis or evaluation of clinical trial samples, 28 Feb. 2012, EMA/INS/GCP/532137/2010” with reference to the “Guidance for Industry, Bioanalytical Method Validation” recommendations issued by the U.S. Department of Health and Human Services, Food and Drug Administration, Center for Drug Evaluation and Research (CDER), Center for Veterinary Medicine (CVM), May 2001, BP.
Control blank human plasma and blood containing K2EDTA as an anti-coagulant, was obtained from Clinical Trials Laboratory Service or BAS volunteers and was stored at nominally −20° C. and +4° C., respectively, when not in use. The mass spectrometer used was an Applied Biosystems AP15000 with the following settings:
All instrument control, data collection, peak area integration and storage was performed using Analyst (version 1.5.2). Peak areas were then imported into Watson LIMS (version 7.2.0.02) for regression and quantification. The mass spectrometer response (peak area ratio of analyte to internal standard) of each calibration standard was calculated by Watson LIMS and plotted against the nominal (prepared) concentration. A weighted (1/x^2) least squares linear regression analysis was used to calculate an equation of the calibration line.
Any concentrations below this level are reported as below the limit of quantification (BLQ). Samples with initial concentrations above the upper limit of quantification ([…]) were re-injected with a reduced injection volume (alongside QC High with reduced injection volume) and sample concentrations interpolated against a calibration curve injected with normal injection volume.

[6] = spiked with Naloxone-N-oxide 10 ng/mL, 0 minutes
[7] = spiked with Naloxone-N-oxide 10 ng/mL, 10 minutes
[8] = spiked with Naloxone-N-oxide 10 ng/mL, 20 minutes
[9] = spiked with Naloxone-N-oxide 10 ng/mL, 30 minutes
[10] = spiked with Naloxone-N-oxide 10 ng/mL, 45 minutes
[11] = spiked with Naloxone-N-oxide 10 ng/mL, 60 minutes
[12] = spiked with Naloxone-N-oxide 10 ng/mL, 120 minutes
[13] = spiked with Naloxone-N-oxide 50 ng/mL, 0 minutes
[14] = spiked with Naloxone-N-oxide 50 ng/mL, 10 minutes
[15] = spiked with Naloxone-N-oxide 50 ng/mL, 20 minutes
[16] = spiked with Naloxone-N-oxide 50 ng/mL, 30 minutes
[17] = spiked with Naloxone-N-oxide 50 ng/mL, 45 minutes
[18] = spiked with Naloxone-N-oxide 50 ng/mL, 60 minutes
[19] = spiked with Naloxone-N-oxide 50 ng/mL, 120 minutes
[20] = spiked with Naloxone-N-oxide 250 ng/mL, 0 minutes
[21] = spiked with Naloxone-N-oxide 250 ng/mL, 10 minutes
[22] = spiked with Naloxone-N-oxide 250 ng/mL, 20 minutes
[23] = spiked with Naloxone-N-oxide 250 ng/mL, 30 minutes
[24] = spiked with Naloxone-N-oxide 250 ng/mL, 45 minutes
[25] = spiked with Naloxone-N-oxide 250 ng/mL, 60 minutes
[26] = spiked with Naloxone-N-oxide 250 ng/mL, 120 minutes

## C=CC[N+]1([O-])CC[C@]23c4c5ccc(O)c4O[C@H]2C(=O)CC[C@@]3(O)[C@H]1C5 (stereo partly shown) [Naloxone N-oxide]
[1]
  Concentration saturated solution c: 3960 µg/mL
[2]; Type Acid
  pKa: 8.55 ± 0.01
[2]; Type Base
  pKa: 2.96 ± 0.01
[3]
  Permeation through the skin (in words): Naloxone N-oxide did not permeate through the skin.
[4]
  logP: −0.42
[5]; 2 hour time course
  Conversion of Naloxone-N-oxide to Naloxone in plasma (in words): small, but insignificant amount of conversion
  Conversion to Naloxone in whole blood (in words): rapidly converts to Naloxone in whole blood
[5]; [6]
  Mean concentration of Naloxone N-oxide in human plasma samples: 0.01 µg/mL
  Mean concentration of Naloxone N-oxide in human whole blood samples: 0.00745 µg/mL
  Concentrations of Naloxone N-oxide in human plasma samples: 9.93 ng/mL and 9.87 ng/mL and 10.2 ng/mL
  Concentrations of Naloxone N-oxide in human whole blood samples: 7.95 ng/mL and 7.69 ng/mL and 6.70 ng/mL
[5]; [7]
  Mean concentration of Naloxone N-oxide in human plasma samples: 0.0102 µg/mL
  Mean concentration of Naloxone N-oxide in human whole blood samples: 0.00602 µg/mL
  Concentrations of Naloxone N-oxide in human plasma samples: 9.61 ng/mL and 10.4 ng/mL and 10.7 ng/mL
  Concentrations of Naloxone N-oxide in human whole blood samples: 5.94 ng/mL and 6.11 ng/mL and 6.01 ng/mL
[5]; [8]
  Mean concentration of Naloxone N-oxide in human plasma samples: 0.0103 µg/mL
  Mean concentration of Naloxone N-oxide in human whole blood samples: 0.00453 µg/mL
  Concentrations of Naloxone N-oxide in human plasma samples: 10.6 ng/mL and 10.3 ng/mL and 9.93 ng/mL
  Concentrations of Naloxone N-oxide in human whole blood samples: 4.70 ng/mL and 4.15 ng/mL and 4.75 ng/mL
[5]; [9]
  Mean concentration of Naloxone N-oxide in human plasma samples: 0.00996 µg/mL
  Mean concentration of Naloxone N-oxide in human whole blood samples: 0.00313 µg/mL
  Concentrations of Naloxone N-oxide in human plasma samples: 9.37 ng/mL and 10.1 ng/mL and 10.4 ng/mL
  Concentrations of Naloxone N-oxide in human whole blood samples: 2.77 ng/mL and 3.14 ng/mL and 3.47 ng/mL
[5]; [10]
  Mean concentration of Naloxone N-oxide in human plasma samples: 0.0104 µg/mL
  Mean concentration of Naloxone N-oxide in human whole blood samples: 0.00215 µg/mL
  Concentrations of Naloxone N-oxide in human plasma samples: 10.7 ng/mL and 10.0 ng/mL and 10.4 ng/mL
  Concentrations of Naloxone N-oxide in human whole blood samples: 2.18 ng/mL and 2.27 ng/mL and 2.01 ng/mL
[5]; [11]
  Mean concentration of Naloxone N-oxide in human plasma samples: 0.0103 µg/mL
  Mean concentration of Naloxone N-oxide in human whole blood samples: 0.00187 µg/mL
  Concentrations of Naloxone N-oxide in human plasma samples: 10.3 ng/mL and 10.6 ng/mL and 10.1 ng/mL
  Concentrations of Naloxone N-oxide in human whole blood samples: 1.79 ng/mL and 1.81 ng/mL and 2.02 ng/mL
[5]; [12]
  Mean concentration of Naloxone N-oxide in human plasma samples: 0.0103 µg/mL
  Mean concentration of Naloxone N-oxide in human whole blood samples: 0.00151 µg/mL
  Concentrations of Naloxone N-oxide in human plasma samples: 10.4 ng/mL (2×) and 10.1 ng/mL
  Concentrations of Naloxone N-oxide in human whole blood samples: 1.55 ng/mL and 1.57 ng/mL and 1.41 ng/mL
[5]; [13]
  Mean concentration of Naloxone N-oxide in human plasma samples: 0.0449 µg/mL
  Mean concentration of Naloxone N-oxide in human whole blood samples: 0.0454 µg/mL
  Concentrations of Naloxone N-oxide in human plasma samples: 48.5 ng/mL and 45.6 ng/mL and 40.5 ng/mL
  Concentrations of Naloxone N-oxide in human whole blood samples: 48.9 ng/mL and 41.3 ng/mL and 46.0 ng/mL
[5]; [14]
  Mean concentration of Naloxone N-oxide in human plasma samples: 0.046 µg/mL
  Mean concentration of Naloxone N-oxide in human whole blood samples: 0.0259 µg/mL
  Concentrations of Naloxone N-oxide in human plasma samples: 43.4 ng/mL and 48.7 ng/mL and 45.8 ng/mL
  Concentrations of Naloxone N-oxide in human whole blood samples: 26.0 ng/mL and 25.0 ng/mL and 26.8 ng/mL
[5]; [15]
  Mean concentration of Naloxone N-oxide in human plasma samples: 0.0484 µg/mL
  Mean concentration of Naloxone N-oxide in human whole blood samples: 0.0204 µg/mL
  Concentrations of Naloxone N-oxide in human plasma samples: 50.1 ng/mL and 47.1 ng/mL and 48.1 ng/mL
  Concentrations of Naloxone N-oxide in human whole blood samples: 20.3 ng/mL and 21.1 ng/mL and 19.9 ng/mL
[5]; [16]
  Mean concentration of Naloxone N-oxide in human plasma samples: 0.0463 µg/mL
  Mean concentration of Naloxone N-oxide in human whole blood samples: 0.016 µg/mL
  Concentrations of Naloxone N-oxide in human plasma samples: 46.9 ng/mL and 44.1 ng/mL and 47.9 ng/mL
  Concentrations of Naloxone N-oxide in human whole blood samples: 15.9 ng/mL and 15.2 ng/mL and 16.9 ng/mL
[5]; [17]
  Mean concentration of Naloxone N-oxide in human plasma samples: 0.0474 µg/mL
  Mean concentration of Naloxone N-oxide in human whole blood samples: 0.0144 µg/mL
  Concentrations of Naloxone N-oxide in human plasma samples: 47.6 ng/mL and 49.1 ng/mL and 45.4 ng/mL
  Concentrations of Naloxone N-oxide in human whole blood samples: 14.1 ng/mL (2×) and 15.1 ng/mL
[5]; [18]
  Mean concentration of Naloxone N-oxide in human plasma samples: 0.048 µg/mL
  Mean concentration of Naloxone N-oxide in human whole blood samples: 0.0104 µg/mL
  Concentrations of Naloxone N-oxide in human plasma samples: 50.0 ng/mL and 46.0 ng/mL and 48.1 ng/mL
  Concentrations of Naloxone N-oxide in human whole blood samples: 10.7 ng/mL and 10.6 ng/mL and 10.0 ng/mL
[5]; [19]
  Mean concentration of Naloxone N-oxide in human plasma samples: 0.0461 µg/mL
  Mean concentration of Naloxone N-oxide in human whole blood samples: 0.00424 µg/mL
  Concentrations of Naloxone N-oxide in human plasma samples: 47.6 ng/mL and 43.9 ng/mL and 46.8 ng/mL
  Concentrations of Naloxone N-oxide in human whole blood samples: 3.99 ng/mL and 4.51 ng/mL and 4.22 ng/mL
[5]; [20]
  Mean concentration of Naloxone N-oxide in human plasma samples: 0.233 µg/mL
  Mean concentration of Naloxone N-oxide in human whole blood samples: 0.255 µg/mL
  Concentrations of Naloxone N-oxide in human plasma samples: 236 ng/mL and 233 ng/mL and 229 ng/mL
  Concentrations of Naloxone N-oxide in human whole blood samples: 245 ng/mL and 254 ng/mL and 265 ng/mL
[5]; [21]
  Mean concentration of Naloxone N-oxide in human plasma samples: 0.225 µg/mL
  Mean concentration of Naloxone N-oxide in human whole blood samples: 0.141 µg/mL
  Concentrations of Naloxone N-oxide in human plasma samples: 218 ng/mL and 234 ng/mL and 223 ng/mL
  Concentrations of Naloxone N-oxide in human whole blood samples: 135 ng/mL and 143 ng/mL and 144 ng/mL
[5]; [22]
  Mean concentration of Naloxone N-oxide in human plasma samples: 0.232 µg/mL
  Mean concentration of Naloxone N-oxide in human whole blood samples: 0.111 µg/mL
  Concentrations of Naloxone N-oxide in human plasma samples: 228 ng/mL and 241 ng/mL and 226 ng/mL
  Concentrations of Naloxone N-oxide in human whole blood samples: 107 ng/mL and 111 ng/mL and 115 ng/mL
[5]; [23]
  Mean concentration of Naloxone N-oxide in human plasma samples: 0.229 µg/mL
  Mean concentration of Naloxone N-oxide in human whole blood samples: 0.0976 µg/mL
  Concentrations of Naloxone N-oxide in human plasma samples: 231 ng/mL and 229 ng/mL and 226 ng/mL
  Concentrations of Naloxone N-oxide in human whole blood samples: 99.0 ng/mL and 96.8 ng/mL and 97.1 ng/mL
[5]; [24]
  Mean concentration of Naloxone N-oxide in human plasma samples: 0.228 µg/mL
  Mean concentration of Naloxone N-oxide in human whole blood samples: 0.0814 µg/mL
  Concentrations of Naloxone N-oxide in human plasma samples: 225 ng/mL and 228 ng/mL and 230 ng/mL
  Concentrations of Naloxone N-oxide in human whole blood samples: 78.2 ng/mL and 80.8 ng/mL and 85.3 ng/mL
[5]; [25]
  Mean concentration of Naloxone N-oxide in human plasma samples: 0.231 µg/mL
  Mean concentration of Naloxone N-oxide in human whole blood samples: 0.069 µg/mL
  Concentrations of Naloxone N-oxide in human plasma samples: 242 ng/mL and 229 ng/mL and 221 ng/mL
  Concentrations of Naloxone N-oxide in human whole blood samples: 73.9 ng/mL and 65.5 ng/mL and 67.7 ng/mL
[5]; [26]
  Mean concentration of Naloxone N-oxide in human plasma samples: 0.225 µg/mL
  Mean concentration of Naloxone N-oxide in human whole blood samples: 0.0493 µg/mL
  Concentrations of Naloxone N-oxide in human plasma samples: 239 ng/mL and 226 ng/mL and 211 ng/mL
  Concentrations of Naloxone N-oxide in human whole blood samples: 46.8 ng/mL and 52.8 ng/mL and 48.3 ng/mL

From US20180344726A1, “ABUSE RESISTANT TRANSDERMAL DELIVERY DEVICES AND COMPOSITIONS COMPRISING AN OPIOID AGONIST AND A NON-TRANSDERMALLY DELIVERED N-OXIDE DERIVATIVE OF AN OPIOID ANTAGONIST FOR THE TREATMENT OF PAIN” (priority 2015, published 2018)
